This note sets out measurements from patent US20250197387A1, “BCL-XL DEGRADERS AND USES THEREOF” (Kymera Therapeutics, Inc., priority 2021, published 2025).

As usually defined, the Dmax is the greatest extent of degradation seen. The DC50 is the midpoint of the concentration-degradation curve.

The target in the test is T1, BCL-XL (Homo sapiens, UniProt Q07817).
T1 construct: endogenous in cells; host or cells: MOLT-4
Put plainly: BCL-XL degradation assay, western blot in MOLT-4 cells, 16 h. In kind it is cell-based. The following applies: western blot, MOLT-4 cells, 16 h; for Dmax: read-out: Bcl-xL WB in MOLT-4 degradation 16 h: Average Dmax %; for DC50: read-out: Bcl-xL WB in MOLT-4 degradation 16 h: Mean external-Abs DC50. As to the method:
Compounds treatment: compounds were reconstituted in DMSO to make a stock concentration of 10 mM. MOLT-4 cells were maintained in RPMI-1640+10% FBS+1% Penicillin-Streptomycin. Cells were seeded into 6-well plates in 2 mL at the seeding density of 2e6 cells/mL. Compounds were added to the cells to a final concentration ranging 0.02-10 μM. After 16 hr incubation at 37° C., in a CO2 incubator, cells were collected in an Eppendorf tube and centrifuged at 200×g for 5 minutes, the supernatant removed and pellets washed with ice-cold PBS, centrifuged and supernatant removed again. Then. 50 μl of pre-chilled RIPA lysis buffer (Boston BioProducts. BP-115D) with protease and phosphatase inhibitors (Roche Applied Science. #04906837001 and #04693116001) was added into cell pellet to lyze the cells for 20 minutes under 4° C. Cell lysates were spin at 13000 rpm for 10 minutes. Supernatants were collected and protein concentration was measured by BCA assay kit (Solarbio. PC0020-500) following the manufacturer's protocol. Samples' final protein concentration was adjusted to 3.75 μg/uL with the RIPA lysis buffer based on BCA assay results and 4× loading buffer (Invitrogen. NP0007) was added into the samples and samples were heated to 85° C., for 10 min and then let cool at RT. Samples were centrifuged at 13000 rpm for 10 min and then loaded into a 26-well NuPAGER. Novex 4-12% Bis-Tris Midi Gel (Invitrogen. WG1403BOX) and run in NuPAGER MOPS SDS Running Buffer (Invitrogen. NP0001) for 180 minutes at 70 V into a XCell4 SureLock™ Midi-Cell Runner (Invitrogen. WR0100). Gel were transferred using the Invitrogen iBlot gel transfer device (Invitrogen. IB21001) and the nitrocellulose transfer stacks (Invitrogen, IB23001) with Program PO for 9 minutes. The membrane was then blocked with 5% bovin serum albumin for 1 hr at RT, then incubated with primary antibodies diluted in blocking buffer (LI-COR. 927-60001) and shake at 4° C., overnight. The primary antibodies were anti-BCL-xL antibody (CST. 2762:1:1000), anti-beta-actin (CST. 3700; 1:5000) and anti-GAPDH (CST. 97166:1:5000). Membranes were then washed three times with PBST for 15 minutes at RT. Secondary antibodies IR-Dye 680 CW Goat anti Mouse IgG (LI-COR. 926-68070) and IR-Dye 800 CW Goat anti Rabbit IgG (LI-COR. 926-32211) were diluted at a ratio of 1:10000 into PBST and membranes incubated for 1 hour at RT. Membranes were then washed three times with PBST for 15 minutes at RT. The western blot images were obtained using Odyssey Imaging System and quantified using Image Studio Lite Ver 5.2 software.
The letter codes for BCL-XL DC50 include: A (<0.01 μM); B (0.01-0.1 μM); C (>[…]); D (>0.5-1.0 μM); and E (>1.0 μM). The letter codes for Dmax % include A (>75%); B (50 to 75%); C (<50%).
(In general: A western blot detects proteins with antibodies after separation by electrophoresis.)

T1 sequence (Q07817 whole entry): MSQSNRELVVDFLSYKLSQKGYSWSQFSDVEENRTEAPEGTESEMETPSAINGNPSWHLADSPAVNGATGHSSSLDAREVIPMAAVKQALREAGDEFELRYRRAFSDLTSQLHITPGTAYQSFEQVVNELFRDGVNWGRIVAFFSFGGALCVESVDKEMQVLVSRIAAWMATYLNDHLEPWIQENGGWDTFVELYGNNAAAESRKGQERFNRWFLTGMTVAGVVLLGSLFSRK

Consider `Cc1ncsc1-c1ccc([C@H](C)NC(=O)[C@@H]2C[C@@H](O)CN2C(=O)[C@@H](NC(=O)CCCN(C)C(=O)CCCCCc2ccc(N3CCc4cccc(C(=O)Nc5nc6ccccc6s5)c4C3)nc2C(=O)O)C(C)(C)C)cc1` [I-36, 6-(8-(benzo[d]thiazol-2-ylcarbamoyl)-3,4-dihydroisoquinolin-2 (1H)-yl)-3-(6-((4-(((S)-1-((2S,4R)-4-hydroxy-2-(((S)-1-(4-(4-methylthiazol-5-yl)phenyl)ethyl)carbamoyl)pyrrolidin-1-yl)-3,3-dimethyl-1-oxobutan-2-yl)amino)-4-oxobutyl)(methyl)amino)-6-oxohexyl)picolinic acid], for which the Dmax is under 50% and the DC50 was over 1 µM.
Taken in the same sequence, the figures for `Cc1ncsc1-c1ccc(CNC(=O)[C@@H]2C[C@@H](O)CN2C(=O)[C@@H](NC(=O)C2(F)CC2)C(C)(C)C)c(OCCCCCCCC(=O)N(C)CCCc2cccc(F)c2OCCCc2sc(N3CCc4cccc(C(=O)Nc5nc6ccccc6s5)c4C3)nc2C(=O)O)c1` [I-14] were over 75% and 0.1 to 0.5 µM.
Taken in the same sequence, the figures for `Cc1ncsc1-c1ccc([C@H](C)NC(=O)[C@@H]2C[C@@H](O)CN2C(=O)[C@@H](NC(=O)CCC2(Cn3ncc(-c4ccc(N5CCc6cccc(C(=O)Nc7nc8ccccc8s7)c6C5)nc4C(=O)O)c3C)CCCCC2)C(C)(C)C)cc1` [I-128, 6-(8-(benzo[d]thiazol-2-ylcarbamoyl)-3,4-dihydroisoquinolin-2 (1H)-yl)-3-(1-((1-(3-(((S)-1-((2S,4R)-4-hydroxy-2-(((S)-1-(4-(4-methylthiazol-5-yl)phenyl)ethyl)carbamoyl)pyrrolidin-1-yl)-3,3-dimethyl-1-oxobutan-2-yl)amino)-3-oxopropyl)cyclohexyl)methyl)-5-methyl-1H-pyrazol-4-yl)picolinic acid] were under 50% and over 1 µM.
Taken in the same sequence, the figures for `Cc1ncsc1-c1ccc([C@H](C)NC(=O)[C@@H]2C[C@@H](O)CN2C(=O)[C@@H](NC(=O)CCCCCC(=O)N(C)CC#Cc2ccc(OCCCc3sc(N4CCc5cccc(C(=O)Nc6nc7ccccc7s6)c5C4)nc3C(=O)O)c(F)c2)C(C)(C)C)cc1` [I-3] were over 75% and 0.01 to 0.1 µM.
Regarding `Cc1ncsc1-c1ccc([C@H](C)NC(=O)[C@@H]2C[C@@H](O)CN2C(=O)[C@@H](NC(=O)CCc2ccc(N3CCc4cccc(C(=O)Nc5nc6ccccc6s5)c4C3)nc2C(=O)O)C(C)(C)C)cc1` [I-40], the Dmax was under 50% and the DC50 is over 1 µM.
Take `Cc1ncsc1-c1ccc([C@H](C)NC(=O)[C@@H]2C[C@@H](O)CN2C(=O)[C@@H](NC(=O)C[C@H]2CC[C@H](C(=O)N3CCN(CC[C@H](CSc4ccccc4)Nc4ccc(S(=O)(=O)NC(=O)c5ccc(N6CCN(CC7=C(c8ccc(Cl)cc8)CCC(C)(C)C7)CC6)cc5)cc4S(=O)(=O)C(F)(F)F)CC3)CC2)C(C)(C)C)cc1` [I-390]: the Dmax is over 75% and the DC50 fell in the range of 0.01 to 0.1 µM.
In the same order, the values of `Cc1ncsc1-c1ccc(CNC(=O)[C@@H]2C[C@@H](O)CN2C(=O)[C@@H](NC(=O)CCOCCOCCOCC#Cc2ccc(OCCCc3sc(N4CCc5cccc(C(=O)Nc6nc7ccccc7s6)c5C4)nc3C(=O)O)cc2)C(C)(C)C)cc1` [I-385] are over 75% and 0.01 to 0.1 µM.
Taken in the same sequence, the figures for `Cc1ncsc1-c1ccc(CNC(=O)[C@@H]2C[C@@H](O)CN2C(=O)[C@@H](NC(=O)C2(F)CC2)C(C)(C)C)c(OCCCC(=O)N(C)CC#Cc2cccc(F)c2OCCCc2sc(N3CCc4cccc(C(=O)Nc5nc6ccccc6s5)c4C3)nc2C(=O)O)c1` [I-18] were 50 to 75% and over 1 µM.
Taken in the same sequence, the figures for `Cc1ncsc1-c1ccc([C@H](C)NC(=O)[C@@H]2C[C@@H](O)CN2C(=O)[C@@H](NC(=O)CCCC(=O)N(C)CC#Cc2ccc(OCCCc3sc(N4CCc5cccc(C(=O)Nc6nc7ccccc7s6)c5C4)nc3C(=O)O)c(F)c2)C(C)(C)C)cc1` [I-2] were over 75% and 0.1 to 0.5 µM.
On to `Cc1ncsc1-c1ccc(CNC(=O)[C@@H]2C[C@@H](O)CN2C(=O)[C@@H](NC(=O)CCCC(=O)N(C)CCN(C)c2cc3c(c(C(=O)Nc4nc5ccccc5s4)c2)CN(c2ccc(-c4cnn(CC5CCCCC5)c4C)c(C(=O)O)n2)CC3)C(C)(C)C)cc1` [I-109], for which the Dmax was under 50% and the DC50 is over 1 µM.
For `Cc1ncsc1-c1ccc([C@H](C)NC(=O)[C@@H]2C[C@@H](O)CN2C(=O)[C@@H](NC(=O)CCCCCC(=O)N2CCN(CC#Cc3ccc(OCCCc4sc(N5CCc6cccc(C(=O)Nc7nc8ccccc8s7)c6C5)nc4C(=O)O)cc3)CC2)C(C)(C)C)cc1` [I-93], the Dmax fell in the range of 50 to 75% and the DC50 was over 1 µM.
In the same order, the values of `Cc1ncsc1-c1ccc([C@H](C)NC(=O)[C@@H]2C[C@@H](O)CN2C(=O)[C@@H](NC(=O)[C@H]2CC[C@H](CC(=O)N3CCN(CC[C@H](CSc4ccccc4)Nc4ccc(S(=O)(=O)NC(=O)c5ccc(N6CCN(CC7=C(c8ccc(Cl)cc8)CCC(C)(C)C7)CC6)cc5)cc4S(=O)(=O)C(F)(F)F)CC3)CC2)C(C)(C)C)cc1` [I-391] are over 75% and 0.01 to 0.1 µM.
In the same order, the values of `Cc1ncsc1-c1ccc(CNC(=O)[C@@H]2C[C@@H](O)CN2C(=O)[C@@H](NC(=O)C2(F)CC2)C(C)(C)C)c(OCCCCCC(=O)N(C)CCCc2cccc(F)c2OCCCc2sc(N3CCc4cccc(C(=O)Nc5nc6ccccc6s5)c4C3)nc2C(=O)O)c1` [I-13] are over 75% and 0.1 to 0.5 µM.
With `Cc1ncsc1-c1ccc([C@H](C)NC(=O)[C@@H]2C[C@@H](O)CN2C(=O)[C@@H](NC(=O)CCCC(=O)N2CCN(CC[C@H](CSc3ccccc3)Nc3ccc(S(=O)(=O)NC(=O)c4ccc(N5CCN(CC6=C(c7ccc(Cl)cc7)CCC(C)(C)C6)CC5)cc4)cc3S(=O)(=O)C(F)(F)F)CC2)C(C)(C)C)cc1` [I-86], the Dmax was in the range of 50 to 75% and the half-maximal degradation concentration (DC50) is over 1 µM.
In the same order, the values of `Cc1ncsc1-c1ccc([C@H](C)NC(=O)[C@@H]2C[C@@H](O)CN2C(=O)[C@@H](NC(=O)CCCCCS(=O)(=O)NC(=O)c2ccc(N3CCN(CC4=C(c5ccc(Cl)cc5)CCC(C)(C)C4)CC3)cc2)C(C)(C)C)cc1` [I-106] are under 50% and over 1 µM.
Taken in the same sequence, the figures for `Cc1ncsc1-c1ccc([C@H](C)NC(=O)[C@@H]2C[C@@H](O)CN2C(=O)[C@@H](NC(=O)CCc2ccc(S(=O)(=O)NC(=O)c3ccc(N4CCN(CC5=C(c6ccc(Cl)cc6)CCC(C)(C)C5)CC4)cc3)cc2)C(C)(C)C)cc1` [I-124] were under 50% and over 1 µM.
As for `Cc1cc(N(CCCC(=O)N[C@H](C(=O)N2C[C@H](O)C[C@H]2C(=O)N[C@@H](C)c2ccc(-c3scnc3C)cc2)C(C)(C)C)c2ccc(-c3cnn(CC4CCCCC4)c3C)c(C(=O)O)n2)nnc1Nc1nc2ccccc2s1` [I-113], the Dmax was under 50% and the DC50 was over 1 µM.
Taken in the same sequence, the figures for `Cc1ncsc1-c1ccc(CNC(=O)[C@@H]2C[C@@H](O)CN2C(=O)[C@@H](NC(=O)C2(F)CC2)C(C)(C)C)c(O[C@H]2CC[C@@H](C(=O)N3CCN(CC[C@H](CSc4ccccc4)Nc4ccc(S(=O)(=O)NC(=O)c5ccc(N6CCN(CC7=C(c8ccc(Cl)cc8)CCC(C)(C)C7)CC6)cc5)cc4S(=O)(=O)C(F)(F)F)CC3)CC2)c1` [I-90] were under 50% and over 1 µM.
Consider `Cc1ncsc1-c1ccc(CNC(=O)[C@@H]2C[C@@H](O)CN2C(=O)[C@@H](NC(=O)C2(F)CC2)C(C)(C)C)c(OCCCCCC(=O)N(C)CC#Cc2cccc(F)c2OCCCc2sc(N3CCc4cccc(C(=O)Nc5nc6ccccc6s5)c4C3)nc2C(=O)O)c1` [I-19], for which the Dmax was under 50% and the DC50 was over 1 µM.
